The results in this text go back to ChEMBL document CHEMBL1782038, “Heterocyclic replacement of the central phenyl core of diamine-based histamine H3 receptor antagonists” (Eur J Med Chem, 2009).

Series [1] is described as follows: in vivo. To be noted: Sprague-Dawley, rat, iv, 1 mg/kg.
The nature of series [2]: in vivo. To be noted: Sprague-Dawley, rat, po, 10 mg/kg.
The nature of series [3]: in vivo. To be noted: Sprague-Dawley, rat, iv, 1 mg/kg. This is another data set of the same source.
Series [4] can be described thus: in vivo. To be noted: Sprague-Dawley, rat, po, 10 mg/kg. This is another data set of the same source.
For a further series, the species on record is Rattus norvegicus. To be noted: in vivo, po, 10 mg/kg.
Series [5] can be described thus: in vivo. The following applies: Sprague-Dawley, rat, iv, 1 mg/kg. The source holds these as a separate data set.
Series [6] in a line: in vivo. The following applies: Sprague-Dawley, rat, po, 10 mg/kg. This is another data set of the same source.
The nature of series [7]: in vivo. To be noted: Sprague-Dawley, rat, po, 10 mg/kg. This is another data set of the same source.

Turning to `CC(C)N1CCN(C(=O)c2ccc(CN3CCCCC3)cc2)CC1`, the half-life in “in vivo [1]” was 13.8 h; in “in vivo [7]”, 33.6 h. The bioavailability in the series “in vivo [2]” was 54%. The compound also gave a clearance in the series “in vivo [3]” of 9.67 mL/min. The compound further had a CL/F in the series “in vivo [4]” of 18.3 mL/min. The same compound registered a Vz in the series listed under Rattus norvegicus of 41.1 L. This compound had a Vd in “in vivo [5]” of 10.6 L. Also, in the series “in vivo [6]”, the time of peak concentration (Tmax) came to 1.7 h.
